# According to the supplement of paper PMC4862054:
# Tested on: HCC1937
# Assay: drug sensitivity score (DSS), CellTox Green (DSS (AUC-based score)); higher = stronger drug effect (viability inhibition or cytotoxicity); extreme values may be limits of the assay
# Conditions: incubation time: 72 h
# In short: (§1)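 Plates with 384 wells held compound at 5 concentrations in 10-fold steps over a 10,000-fold range specific to each compound. Breast cancer cell lines were added in 20 µl suspension and incubated 72 h, then read for CellTox Green and CellTiter-Glo signals, with each plate normalised to 0.1 % DMSO and a positive kill control. The drug sensitivity score is based on the area under the fitted dose-response curve.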
row,Structure (SMILES),drug sensitivity score
1,CC(C)C(=O)Nc1ccc([N+](=O)[O-])c(C(F)(F)F)c1 [Flutamide],0
2,COc1cc2c(Oc3ccc(NC(=O)C4(C(=O)Nc5ccc(F)cc5)CC4)cc3F)ccnc2cc1OCCCN1CCOCC1 [Foretinib],0
3,O=NN(CCCl)C(=O)NC1CCCCC1 [Lomustine],0
4,O=C(O)CC[C@H]1CC[C@@](c2cc(F)ccc2F)(S(=O)(=O)c2ccc(Cl)cc2)CC1 [MK-0752],0
5,NC1(c2ccc(-c3nc4ccn5c(=O)[nH]nc5c4cc3-c3ccccc3)cc2)CCC1 [MK-2206],0
6,N[C@@H](Cc1ccc(N(CCCl)CCCl)cc1)C(=O)O [Melphalan],15.4
7,O=C(c1cc(Cc2n[nH]c(=O)c3ccccc23)ccc1F)N1CCN(C(=O)C2CC2)CC1 [Olaparib],0

# Tested on: HDQ-P1
# Assay: as above
# Conditions: incubation time: 72 h
# In short: as §1
row,Structure (SMILES),drug sensitivity score
1,Cc1cc2c(F)c(Oc3ncnn4cc(OC[C@@H](C)O)c(C)c34)ccc2[nH]1 [Brivanib],0
2,CC(C)C[C@H](NC(=O)[C@H](CCc1ccccc1)NC(=O)CN1CCOCC1)C(=O)N[C@@H](Cc1ccccc1)C(=O)N[C@@H](CC(C)C)C(=O)[C@@]1(C)CO1 [Carfilzomib],19.1
3,Nc1nc(Cl)nc2c1ncn2[C@@H]1O[C@H](CO)[C@@H](O)[C@@H]1F [Clofarabine],0
4,C[C@@H]1C[C@H]2[C@@H]3CCC4=CC(=O)C=C[C@]4(C)[C@@]3(F)[C@@H](O)C[C@]2(C)[C@@]1(O)C(=O)CO [Dexamethasone],0
5,CC(C)C(=O)Nc1ccc([N+](=O)[O-])c(C(F)(F)F)c1 [Flutamide],0
6,COc1cc2c(Oc3ccc(NC(=O)C4(C(=O)Nc5ccc(F)cc5)CC4)cc3F)ccnc2cc1OCCCN1CCOCC1 [Foretinib],0
7,O=NN(CCCl)C(=O)NC1CCCCC1 [Lomustine],0
8,O=C(O)CC[C@H]1CC[C@@](c2cc(F)ccc2F)(S(=O)(=O)c2ccc(Cl)cc2)CC1 [MK-0752],0
9,NC1(c2ccc(-c3nc4ccn5c(=O)[nH]nc5c4cc3-c3ccccc3)cc2)CCC1 [MK-2206],0
10,NC(=O)c1cccc2cn(-c3ccc([C@@H]4CCCNC4)cc3)nc12 [MK-4827],0
11,N[C@@H](Cc1ccc(N(CCCl)CCCl)cc1)C(=O)O [Melphalan],18.4

# Tested on: Hs578T
# Assay: as above
# Conditions: incubation time: 72 h
# In short: as §1
row,Structure (SMILES),drug sensitivity score
1,Cc1cc2c(F)c(Oc3ncnn4cc(OC[C@@H](C)O)c(C)c34)ccc2[nH]1 [Brivanib],0
2,CC(C)C[C@H](NC(=O)[C@H](CCc1ccccc1)NC(=O)CN1CCOCC1)C(=O)N[C@@H](Cc1ccccc1)C(=O)N[C@@H](CC(C)C)C(=O)[C@@]1(C)CO1 [Carfilzomib],16.7
3,Nc1nc(Cl)nc2c1ncn2[C@@H]1O[C@H](CO)[C@@H](O)[C@@H]1F [Clofarabine],0
4,C[C@@H]1C[C@H]2[C@@H]3CCC4=CC(=O)C=C[C@]4(C)[C@@]3(F)[C@@H](O)C[C@]2(C)[C@@]1(O)C(=O)CO [Dexamethasone],1.94
5,CC(C)C(=O)Nc1ccc([N+](=O)[O-])c(C(F)(F)F)c1 [Flutamide],0
6,COc1cc2c(Oc3ccc(NC(=O)C4(C(=O)Nc5ccc(F)cc5)CC4)cc3F)ccnc2cc1OCCCN1CCOCC1 [Foretinib],2.65
7,O=NN(CCCl)C(=O)NC1CCCCC1 [Lomustine],0
8,O=C(O)CC[C@H]1CC[C@@](c2cc(F)ccc2F)(S(=O)(=O)c2ccc(Cl)cc2)CC1 [MK-0752],0
9,NC1(c2ccc(-c3nc4ccn5c(=O)[nH]nc5c4cc3-c3ccccc3)cc2)CCC1 [MK-2206],0
10,NC(=O)c1cccc2cn(-c3ccc([C@@H]4CCCNC4)cc3)nc12 [MK-4827],0
11,N[C@@H](Cc1ccc(N(CCCl)CCCl)cc1)C(=O)O [Melphalan],12.4
12,O=C(c1cc(Cc2n[nH]c(=O)c3ccccc23)ccc1F)N1CCN(C(=O)C2CC2)CC1 [Olaparib],0

# Tested on: MCF-10A
# Assay: as above
# Conditions: incubation time: 72 h
# In short: as §1
row,Structure (SMILES),drug sensitivity score
1,Cc1cc2c(F)c(Oc3ncnn4cc(OC[C@@H](C)O)c(C)c34)ccc2[nH]1 [Brivanib],0
2,CC(C)C[C@H](NC(=O)[C@H](CCc1ccccc1)NC(=O)CN1CCOCC1)C(=O)N[C@@H](Cc1ccccc1)C(=O)N[C@@H](CC(C)C)C(=O)[C@@]1(C)CO1 [Carfilzomib],9.99
3,Nc1nc(Cl)nc2c1ncn2[C@@H]1O[C@H](CO)[C@@H](O)[C@@H]1F [Clofarabine],0
4,C[C@@H]1C[C@H]2[C@@H]3CCC4=CC(=O)C=C[C@]4(C)[C@@]3(F)[C@@H](O)C[C@]2(C)[C@@]1(O)C(=O)CO [Dexamethasone],3.19
5,CC(C)C(=O)Nc1ccc([N+](=O)[O-])c(C(F)(F)F)c1 [Flutamide],0
6,COc1cc2c(Oc3ccc(NC(=O)C4(C(=O)Nc5ccc(F)cc5)CC4)cc3F)ccnc2cc1OCCCN1CCOCC1 [Foretinib],0
7,O=NN(CCCl)C(=O)NC1CCCCC1 [Lomustine],0
8,O=C(O)CC[C@H]1CC[C@@](c2cc(F)ccc2F)(S(=O)(=O)c2ccc(Cl)cc2)CC1 [MK-0752],0
9,NC1(c2ccc(-c3nc4ccn5c(=O)[nH]nc5c4cc3-c3ccccc3)cc2)CCC1 [MK-2206],0
